From paper PMC4521712, “Enhanced Bacterial α(2,6)-Sialyltransferase Reaction through an Inhibition of Its Inherent Sialidase Activity by Dephosphorylation of Cytidine-5'-Monophosphate” (PLoS ONE, 2015) come the findings set out here.

What all share (format): biochemical
For experiment [1], the target named is T1, P145-ST (Photobacterium leiognathi, UniProt A8R0T5).
T1 construct: gene plst6; residues 16-497 with catalytic domain, pColdII N-terminal His-tag (kept), codon-optimised gene, E. coli BL21, Ni-NTA
T1 sequence (A8R0T5 16-497): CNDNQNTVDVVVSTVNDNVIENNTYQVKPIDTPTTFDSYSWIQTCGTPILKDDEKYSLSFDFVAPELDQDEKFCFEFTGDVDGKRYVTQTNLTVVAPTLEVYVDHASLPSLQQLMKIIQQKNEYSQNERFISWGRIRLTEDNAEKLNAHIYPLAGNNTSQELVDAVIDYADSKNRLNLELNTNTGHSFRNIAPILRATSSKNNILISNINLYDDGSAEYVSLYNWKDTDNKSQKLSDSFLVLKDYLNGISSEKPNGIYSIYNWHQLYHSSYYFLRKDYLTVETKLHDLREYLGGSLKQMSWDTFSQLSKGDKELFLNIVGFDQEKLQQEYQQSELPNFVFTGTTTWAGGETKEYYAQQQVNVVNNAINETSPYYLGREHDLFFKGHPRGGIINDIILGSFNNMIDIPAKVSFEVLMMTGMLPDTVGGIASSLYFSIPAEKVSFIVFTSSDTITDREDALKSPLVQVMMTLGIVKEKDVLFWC
Kind of experiment: HPLC of AA-lactose released from AA-6'-sialyllactose (sialidase activity). As to conditions: inhibitor of sialidase activity, 0.01-10 mM; 50 μM AA-6'-sialyllactose, 100 mM sodium phosphate pH 6.0, 37°C, 2 h.

The target of experiment [2] is T2, P224-ST (Photobacterium sp. JT-ISH-224, UniProt A8QYL1).
T2 construct: gene pst6-224; residues 18-514 with catalytic domain, pColdII N-terminal His-tag (kept), codon-optimised gene, E. coli BL21, Ni-NTA
T2 sequence (A8QYL1 18-514): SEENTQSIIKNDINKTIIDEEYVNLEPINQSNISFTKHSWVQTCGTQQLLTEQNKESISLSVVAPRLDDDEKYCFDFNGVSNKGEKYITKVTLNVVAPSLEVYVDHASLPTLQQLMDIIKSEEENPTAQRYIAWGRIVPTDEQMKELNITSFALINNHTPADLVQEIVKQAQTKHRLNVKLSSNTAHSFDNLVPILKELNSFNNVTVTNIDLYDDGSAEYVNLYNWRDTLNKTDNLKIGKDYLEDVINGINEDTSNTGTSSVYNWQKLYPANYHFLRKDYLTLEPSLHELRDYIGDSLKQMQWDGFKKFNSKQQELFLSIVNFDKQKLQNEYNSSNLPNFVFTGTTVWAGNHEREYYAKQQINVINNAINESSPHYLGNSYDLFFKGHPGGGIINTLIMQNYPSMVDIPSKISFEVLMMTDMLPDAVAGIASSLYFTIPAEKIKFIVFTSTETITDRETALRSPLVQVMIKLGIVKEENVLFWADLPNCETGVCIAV
The description is as above. To be noted: 1 mM, 50 μM AA-6'-sialyllactose, 100 mM sodium phosphate pH 6.0, 37°C, 2 h.

In experiment [3] the target is T3, Pd-ST (Photobacterium damselae, UniProt O66375).
T3 construct: gene bst; residues 16-497 with catalytic domain, pColdII N-terminal His-tag (kept), codon-optimised gene, E. coli BL21, Ni-NTA
T3 sequence (O66375 16-497): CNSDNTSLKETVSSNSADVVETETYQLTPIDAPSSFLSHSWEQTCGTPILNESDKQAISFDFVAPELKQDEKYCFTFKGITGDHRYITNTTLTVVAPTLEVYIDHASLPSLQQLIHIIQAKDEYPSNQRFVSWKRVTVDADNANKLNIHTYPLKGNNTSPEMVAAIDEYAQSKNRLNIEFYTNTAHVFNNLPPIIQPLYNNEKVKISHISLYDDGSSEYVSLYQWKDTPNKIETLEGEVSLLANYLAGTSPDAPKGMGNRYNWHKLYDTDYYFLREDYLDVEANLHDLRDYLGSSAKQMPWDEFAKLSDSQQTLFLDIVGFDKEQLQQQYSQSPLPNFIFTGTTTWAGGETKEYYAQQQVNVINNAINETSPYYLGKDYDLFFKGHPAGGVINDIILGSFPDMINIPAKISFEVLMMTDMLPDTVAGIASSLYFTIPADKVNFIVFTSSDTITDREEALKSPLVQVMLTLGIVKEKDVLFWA
The description is as above. To be noted: 1 mM, 50 μM AA-6'-sialyllactose, 100 mM sodium phosphate pH 6.0, 37°C, 2 h.

Experiment [4] has as its target T1, P145-ST. The description is as above. As to conditions: 50 μM AA-6'-sialyllactose, 100 mM sodium phosphate pH 6.0, 37°C, 2 h.
Experiment [5] has as its target T3, Pd-ST. Kind of experiment: HPLC of sialylated AA-glycans, Michaelis-Menten fit. To be noted: sialyltransferase; 0.5 mM CMP-Neu5Ac, 100 mM Tris-HCl pH 8.0, 30°C, 5 min; labelled compound; read-out: apparent Km.
The target in experiment [6] is T1, P145-ST. The description is as above. As to conditions: sialyltransferase; 0.5 mM CMP-Neu5Ac, 100 mM Tris-HCl pH 8.0, 30°C, 5 min; labelled compound; read-out: apparent Km. The source says:
HPLC of sialylated AA-glycans, Michaelis-Menten fit on P145-ST | The apparent Km values of Pd-, P224-, and P145-ST for G2-AA substrate are […]

Experiment [7] addresses T2, P224-ST. Described as above. As to conditions: sialyltransferase; 0.5 mM CMP-Neu5Ac, 100 mM Tris-HCl pH 8.0, 30°C, 5 min; labelled compound; read-out: apparent Km. The source says:
HPLC of sialylated AA-glycans, Michaelis-Menten fit on P224-ST | The apparent Km values of Pd-, P224-, and P145-ST for G2-AA substrate are […]

[8] abbreviates: inhibitor of sialidase activity.
The mark [9] stands for this setting: activator of sialidase activity.

Take `Nc1ccn([C@@H]2O[C@H](COP(=O)(O)OP(=O)(O)O)[C@@H](O)[C@H]2O)c(=O)n1` [CDP]: the “HPLC of AA-lactose released from AA-6'-sialyllactose (sialidase activity)” value (shortened to “HPLC of AA-lactose released”) at P145-ST [1] was “CTP and CDP inhibited sialidase activity in a concentration-dependent manner”; on P224-ST [2] (setting [8]), “all other tested nucleotides including CDP, CTP, and cytidine showed decreasing effects”; on Pd-ST [3] (setting [8]) it was “all other tested nucleotides including CDP, CTP, and cytidine showed decreasing effects”.
As for `Nc1ccn([C@@H]2O[C@H](COP(=O)(O)O)[C@@H](O)[C@H]2O)c(=O)n1` [CMP], the “% lactose formed at 10 mM” value at P145-ST [4] (setting [9]) is 43%. Further, the “HPLC of AA-lactose released” value on P224-ST [2] (setting [9]) and at Pd-ST [3] (setting [9]) was “the addition of CMP increased the sialidase activity” each time.
As for `Nc1ccn([C@@H]2O[C@H](COP(=O)(O)OP(=O)(O)OP(=O)(O)O)[C@@H](O)[C@H]2O)c(=O)n1` [CTP], the “% lactose formed at 10 mM” value on P145-ST [4] (setting [8]) worked out at 2%. Moreover, the “HPLC of AA-lactose released” value at P224-ST [2] (setting [8]) was “all other tested nucleotides including CDP, CTP, and cytidine showed decreasing effects”; at Pd-ST [3] (setting [8]), “all other tested nucleotides including CDP, CTP, and cytidine showed decreasing effects”.
Take `CC(=O)N[C@H]1[C@H](O[C@@H]([C@H](O)[C@H](CNc2ccccc2C(=O)O)NC(C)=O)[C@H](O)CO)O[C@H](CO)[C@@H](O[C@@H]2O[C@H](CO[C@H]3O[C@H](CO)[C@@H](O)[C@H](O)[C@@H]3O[C@@H]3O[C@H](CO)[C@@H](O[C@@H]4O[C@H](CO)[C@H](O)[C@H](O)[C@H]4O)[C@H](O)[C@H]3NC(C)=O)[C@@H](O)[C@H](O[C@H]3O[C@H](CO)[C@@H](O)[C@H](O)[C@@H]3O[C@@H]3O[C@H](CO)[C@@H](O[C@@H]4O[C@H](CO)[C@H](O)[C@H](O)[C@H]4O)[C@H](O)[C@H]3NC(C)=O)[C@@H]2O)[C@@H]1O` [G2-AA, AA-labeled G2 glycan]: the values for the Km at Pd-ST [5], on P145-ST [6] and on P224-ST [7] were 36.1 ± 4.9 µM, 27.8 ± 5.8 µM and 39.2 ± 4.7 µM, respectively.
As for `Nc1ccn([C@@H]2O[C@H](CO)[C@@H](O)[C@H]2O)c(=O)n1` [cytidine], the “HPLC of AA-lactose released” value is “cytidine appeared to inhibit sialidase activity in an on-and-off mode” at P145-ST [1]; “all other tested nucleotides including CDP, CTP, and cytidine showed decreasing effects” at P224-ST [2] (setting [8]); “all other tested nucleotides including CDP, CTP, and cytidine showed decreasing effects” at Pd-ST [3] (setting [8]).

Broadly, the Km is the concentration of substrate that gives half-maximal velocity.
